Series [1] in a line: Metabolic stability in human liver microsomes (in vitro t1/2). Format: in vitro ADME. The conditions noted are these: for half-life at 2 µM / Human microsome t1/2, min: human liver microsomes 0.5 mg/mL, 2 μM compound; for half-life at 2 µM: read-out: Human microsome t1/2, min; for Human microsome % 60 min: human liver microsomes. Here is the method:
(§1) The following are assays that may be used to evaluate the metabolic stability of compounds of Formula (I) in human, rat, or mouse microsomes. The assays follow a common procedure recited below. 1. […] Two separated experiments were performed as follows. a) With NADPH: 10 μL of 20 mg/mL liver microsomes and 40 μL of 10 mM NADPH were added to the incubations. […] The final concentration of microsomes was 0.5 mg/mL. 3. The reaction was started with the addition of 4 μL of 200 μM control compound or test compound solutions. Verapamil was used as positive control in this study. The final concentration of test compound or control compound was 2 μM. 4. Aliquots of 50 μL were taken from the reaction solution at 0, 15, 30, 45 and 60 min. […] Samples were centrifuged at 3,220 g for 40 minutes. A 90 μL aliquot of the supernatant was mixed with 90 μL of ultra-pure H2O and then used for LC-MS/MS analysis. 5. Data analysis. All calculations were carried out using Microsoft Excel. Peak areas were determined from extracted ion chromatograms. The slope value, k, was determined by linear regression of the natural logarithm of the remaining percentage of the parent drug vs. incubation time curve. The in vitro half-life (in vitro t1/2) was determined from the slope value: in vitro t1/2=−(0.693)/k.
A general note: Liver microsomes are a subcellular fraction often used to study metabolism.

Series [2] can be described thus: Metabolic stability in rat liver microsomes (in vitro t1/2). Format: in vitro ADME. The following applies: for half-life at 2 µM: rat liver microsomes 0.5 mg/mL, 2 μM compound, read-out: Rat microsome t1/2, min; for Rat microsome % 60 min: rat liver microsomes. As for the experimental part:
as §1

The target in series [3] is MCT4 (Homo sapiens (Human), UniProt O15427). The series is described as follows: Assay 3: MCT4-mediated lactate transport in MDA-MB-231 breast cancer cells. The class given is cell-based. The conditions noted are these: MDA-MB-231 cells; lactate transport. The method in brief:
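Read-out is BCECF fluorescence tracking the intracellular pH shift from MCT4-mediated lactate/H+ co-transport. Before measurement, MDA-MB-231 cells take up BCECF-AM for 5 min at 37° C, then are washed into Tyrode's Solution, pH 7.4.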

Series [4] concerns the target MCT1 (Homo sapiens (Human), UniProt P53985). The series is described as follows: Assay 4: MCT1-mediated lactate transport in BT20 breast cancer cells. The following applies: Table 27. The class given is cell-based. The method in brief:
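Transport started with 10 mM L-lactate on BCECF-loaded BT20 cells in Tyrode's Solution, pH 7.4. Dye loading: BCECF-AM ester (30 mM DMSO stock), 5 min at 37° C, then one wash.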

A short description of series [5]: Metabolic stability in mouse liver microsomes (in vitro t1/2). Format: in vitro ADME. The following applies: for half-life at 2 µM: mouse liver microsomes 0.5 mg/mL, 2 μM compound, read-out: Mouse microsome t1/2, min; for Mouse microsome % 60 min: mouse liver microsomes. As for the experimental part:
as §1

The nature of series [6]: Pharmacokinetic assay in rat (IV 3 mg/kg, PO 10 mg/kg). The class given is in vivo. The following applies: Male Sprague-Dawley rat. From the text: The following are assays that may be used to evaluate the pharmacokinetic properties of Formula (I) in mouse or rat. The assays follow a common procedure recited below.
1. […] For PO (oral gavage), DMSO/PEG400 (10:90). Formulations freshly prepared on the day of dosing or prior to dosing. Storage at room temperature.
2. Test Species: For Mouse: Male CD1 strain, approximately 6-8 weeks in age, approximately 20-30 g. For Rat: Male Sprague-Dawley strain, approximately 6-8 weeks in age, approximately 200-300 g.
3. Dose Level: For IV, 3 mg/kg. For PO, 10 mg/kg.
4. Number of animals: 3 per assay.
5. PK time points: For IV (plasma): 5 min, 15 min, 1, 2, 4, 6, 8, 24 h post dose. For PO (plasma): 15 min, 30 min, 1, 2, 4, 6, 8, 24 h post dose.
6. Blood Sample Collection and Processing. Blood was collected (˜0.2 mL per time point) from jugular vein. Blood of each sample was transferred into plastic micro centrifuge tubes containing anticoagulant of EDTA-K2. Blood samples were centrifuged at 2,000 g for 5 minutes at 4° C. to obtain plasma.
7. Samples Analysis: Plasma samples were analyzed using LC/MS/MS method, and pharmacokinetic parameters (half-life: t1/2; oral bioavailability: F; volume of distribution: Vss).

MCT1, sequence (P53985 whole entry): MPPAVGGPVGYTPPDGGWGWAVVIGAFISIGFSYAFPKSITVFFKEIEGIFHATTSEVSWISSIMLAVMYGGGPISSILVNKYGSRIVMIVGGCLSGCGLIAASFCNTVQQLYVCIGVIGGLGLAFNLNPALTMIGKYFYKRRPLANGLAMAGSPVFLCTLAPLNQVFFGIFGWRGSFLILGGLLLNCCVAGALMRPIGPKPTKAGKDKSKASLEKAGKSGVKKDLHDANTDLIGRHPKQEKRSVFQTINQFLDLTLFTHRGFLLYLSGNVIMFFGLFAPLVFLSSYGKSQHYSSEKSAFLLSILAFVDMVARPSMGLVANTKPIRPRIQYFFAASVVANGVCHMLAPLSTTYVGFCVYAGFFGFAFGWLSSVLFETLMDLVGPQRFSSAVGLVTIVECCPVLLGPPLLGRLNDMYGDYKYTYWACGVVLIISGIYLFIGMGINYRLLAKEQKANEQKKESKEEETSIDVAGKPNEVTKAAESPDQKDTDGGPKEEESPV
MCT1, sequence (P35613 140-385 partner): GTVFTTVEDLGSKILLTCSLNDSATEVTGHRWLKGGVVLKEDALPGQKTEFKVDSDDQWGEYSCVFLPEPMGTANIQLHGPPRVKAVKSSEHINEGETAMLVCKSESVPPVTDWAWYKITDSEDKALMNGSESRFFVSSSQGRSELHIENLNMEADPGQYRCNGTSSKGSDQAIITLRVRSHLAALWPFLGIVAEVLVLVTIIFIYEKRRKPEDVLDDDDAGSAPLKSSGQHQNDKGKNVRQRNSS
MCT4, sequence (O15427 whole entry, looked up): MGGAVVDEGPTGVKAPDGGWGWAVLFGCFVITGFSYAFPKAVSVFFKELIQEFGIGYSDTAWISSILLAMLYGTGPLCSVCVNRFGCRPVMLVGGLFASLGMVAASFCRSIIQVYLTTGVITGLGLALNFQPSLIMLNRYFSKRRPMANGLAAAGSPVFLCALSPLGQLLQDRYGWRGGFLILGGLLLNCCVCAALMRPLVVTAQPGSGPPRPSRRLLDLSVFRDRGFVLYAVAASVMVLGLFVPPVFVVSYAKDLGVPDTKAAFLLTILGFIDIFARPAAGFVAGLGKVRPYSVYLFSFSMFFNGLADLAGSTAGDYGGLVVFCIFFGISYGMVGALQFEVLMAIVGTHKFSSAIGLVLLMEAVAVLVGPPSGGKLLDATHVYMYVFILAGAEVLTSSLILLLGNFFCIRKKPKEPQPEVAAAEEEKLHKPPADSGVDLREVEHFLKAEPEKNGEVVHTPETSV
MCT4, sequence (P35613 whole entry partner, looked up): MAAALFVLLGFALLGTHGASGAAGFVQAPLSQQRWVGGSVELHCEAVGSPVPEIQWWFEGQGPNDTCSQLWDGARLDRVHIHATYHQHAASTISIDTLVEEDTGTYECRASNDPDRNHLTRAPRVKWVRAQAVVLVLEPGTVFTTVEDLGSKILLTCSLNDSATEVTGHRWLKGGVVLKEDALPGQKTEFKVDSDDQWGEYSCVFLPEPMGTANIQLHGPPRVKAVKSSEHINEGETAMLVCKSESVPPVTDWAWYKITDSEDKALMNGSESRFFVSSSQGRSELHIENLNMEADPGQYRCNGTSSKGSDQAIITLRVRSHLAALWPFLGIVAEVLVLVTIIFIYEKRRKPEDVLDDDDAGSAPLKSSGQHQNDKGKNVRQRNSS

With `CC(C)(OCc1cc(-c2cccc(OCC3CCC3)c2)n(-c2ccccc2Cl)n1)C(=O)O` [Example 178, 2-([1-(2-Chlorophenyl)-5-[3-(Cyclobutyl-methoxy)phenyl]-1H-pyrazol-3-yl]-methoxy)-2-methylpropanoic acid], in series [1], the half-life at 2 µM is 1.92 h and the “Human microsome % 60 min” value amounted to 66%. Moreover, in series [2], the half-life at 2 µM stood at 2.42 h and the “Rat microsome % 60 min” value came out at 72%. Moreover, the IC50 in series [3] was found to be 2.5 nM. The compound also had an IC50 in series [4] of 27000 nM. Moreover, in series [5], the half-life at 2 µM is 2.08 h and the “Mouse microsome % 60 min” value was 70%.
On to `CC(C)(OCc1cc(-c2cccc(OC3CC3)c2)n(-c2ccc(F)cc2N2CCC2)n1)C(=O)O` [Example 183, 2-([1-[2-(Azetidin-1-yl)-4-fluorophenyl]-5-(3-cyclopropoxyphenyl)-1H-pyraz.ol-3-yl]-methoxy)-2-methylpropanoic acid], for which the values for the half-life at 2 µM in series [1], in series [2] and in series [5] were 1.65 h, 1.68 h and 2.03 h, respectively. The “Human microsome % 60 min” value in series [1] came to 66%. Also, in series [2], the “Rat microsome % 60 min” value came to 71%. Besides, the IC50 in series [3] worked out at 1.3 nM; in series [4] it was 86000 nM. Moreover, in series [5], the “Mouse microsome % 60 min” value stood at 73%.
Regarding `Cc1ccccc1-n1nc(COC(C)(C)C(=O)O)cc1-c1cccc(OC2CC2)c1` [Example 188, 2-([5-(3-Cyclopropoxyphenyl)-1-(2-methyl-phenyl)-1H-pyrazol-3-yl]methoxy)-2-methylpropanoic acid], in series [1], the “Human microsome t1/2, min” value is “∞” and the “Human microsome % 60 min” value came to 101%. In series [2], the half-life at 2 µM was 8.17 h and the “Rat microsome % 60 min” value is given as 87%. This compound also registered an IC50 in series [3] of 7.5 nM. Further, 15000 nM corresponded to half-maximal inhibition in series [4] (IC50). Also, in series [5], the half-life at 2 µM came to 23.3 h and the “Mouse microsome % 60 min” value was 92%.
In the case of `CCOc1ccccc1Cn1nc(COC(C)(C)C(=O)O)cc1-c1cc(Cl)cc(OC)c1` [Example 196, 2-([5-(3-Chloro-5-methoxyphenyl)-1-[(2-ethoxyphenyl)methyl]1H-pyrazol-3-yl]-methoxy)-2-methylpropanoic acid], in series [1], the half-life at 2 µM was found to be 1.47 h and the “Human microsome % 60 min” value worked out at 62%. Besides, in series [2], the half-life at 2 µM amounted to 0.633 h and the “Rat microsome % 60 min” value was determined as 32%. In addition, the IC50 in series [3] was found to be 1.9 nM. The IC50 in series [4] came out at 38000 nM. Besides, in series [5], the half-life at 2 µM was 0.617 h and the “Mouse microsome % 60 min” value stood at 33%.
For `CCOc1ccccc1Cn1nc(COC(C)(C)C(=O)O)cc1-c1ccc2cnn(CC)c2c1` [Example 198, 2-([1-[(2-Ethoxyphenyl)methyl]-5-(1-ethyl-1H-indazol-6-yl)-1H-pyrazol-3-yl]-methoxy)-2-methylpropanoic acid], in series [1], the half-life at 2 µM is 3.45 h and the “Human microsome % 60 min” value came to 80%. For the same compound, in series [2], the half-life at 2 µM worked out at 3.42 h and the “Rat microsome % 60 min” value was found to be 82%. The compound further came in with an IC50 in series [3] of 3.5 nM. The compound also displayed an IC50 in series [4] of 26000 nM. In series [5], the half-life at 2 µM turned out to be 4.05 h and the “Mouse microsome % 60 min” value is 84%.
For the compound `CCOc1ccccc1Cn1nc(COC(C)(C)C(=O)O)cc1-c1cccc(OC2CC2)c1` [Example 201, 2-([5-(3-Cyclopropoxyphenyl)-1-[(2-ethoxy-phenyl)methyl]-1H-pyrazol-3-yl]methoxy)-2-methylpropanoic acid], in series [1], the half-life at 2 µM worked out at 1.38 h and the “Human microsome % 60 min” value came out at 58%. Also, in series [2], the half-life at 2 µM was found to be 0.75 h and the “Rat microsome % 60 min” value was found to be 39%. Also, the IC50 in series [3] was 7.2 nM. The same compound registered an IC50 in series [4] of 15000 nM. In addition, in series [5], the half-life at 2 µM is 1.38 h and the “Mouse microsome % 60 min” value came to 58%.
For the compound `CC(C)(OCc1cc(-c2cccc(OC3CC3)c2)n(Cc2ccccc2N2CCCC2)n1)C(=O)O` [Example 202, 2-([5-(3-Cyclopropoxyphenyl)-1-[[2-(pyrrolidin-1-yl)phenyl]methyl]|-1H-pyrazol-3-yl]methoxy)-2-methylpropanoic acid], in series [1], the half-life at 2 µM was 0.617 h and the “Human microsome % 60 min” value is 32%. Also, in series [2], the half-life at 2 µM came out at 0.183 h and the “Rat microsome % 60 min” value is on record as 2%. Also, the IC50 in series [3] was 6.2 nM. Besides, half-maximal inhibition in series [4] (IC50) was put at 23000 nM. Moreover, in series [5], the half-life at 2 µM was 0.633 h and the “Mouse microsome % 60 min” value worked out at 32%.
Take `CC(C)(OCc1cc(-c2cccc(OC3CC3)c2)n(-c2ccccc2N2CCCC2)n1)C(=O)O` [Example 221, 2-([5-(3-Cyclopropoxyphenyl)-1-[2-(pyrrolidin-1-yl)phenyl]-1H-pyrazol-3-yl]-methoxy)-2-methylpropanoic acid]: in series [1], the half-life at 2 µM was 1.13 h and the “Human microsome % 60 min” value stood at 56%. Further, in series [2], the half-life at 2 µM is 0.617 h and the “Rat microsome % 60 min” value was 33%. The same compound showed an IC50 in series [3] of 3.2 nM. In addition, half-maximal inhibition in series [4] (IC50) required 38000 nM. Further, in series [5], the half-life at 2 µM amounted to 0.633 h and the “Mouse microsome % 60 min” value is listed as 34%.
Take `CC[C@@](C)(OCc1cc(-c2cc(OC)cc(OC)c2)n(-c2ccccc2Cl)n1)C(=O)O` [Example 222, (2R)-2-([1-(2-Chlorophenyl)-5-(3,5-dimethoxyphenyl)-1H-pyrazol-3-yl]-methoxy)-2-methylbutanoic acid]: in series [1], the “Human microsome t1/2, min” value is “∞” and the “Human microsome % 60 min” value worked out at 110%. Also, in series [2], the half-life at 2 µM came out at 5.58 h and the “Rat microsome % 60 min” value stood at 90%. Also, the IC50 in series [3] worked out at 3.9 nM. Also, in series [4], half-maximal inhibition (IC50) required 94000 nM. Also, in series [5], the half-life at 2 µM amounted to 16.7 h and the “Mouse microsome % 60 min” value was found to be 94%.
As for `Cn1ncc2ccc(-c3cc(COC(C)(C)C(=O)O)nn3Cc3ccccc3Cl)cc21` [Example 226, 2-([1-[(2-Chlorophenyl)methyl]-5-(1-methyl-1H-indazol-6-yl)-1H-pyrazol-3-yl]-methoxy)-2-methylpropanoic acid], in series [1], the half-life at 2 µM is 7.8 h and the “Human microsome % 60 min” value turned out to be 95%. Also, in series [2], the half-life at 2 µM is 7.58 h and the “Rat microsome % 60 min” value turned out to be 88%. Also, half-maximal inhibition in series [3] (IC50) required 15 nM. The compound also yielded an IC50 in series [4] of 54000 nM. Moreover, in series [5], the half-life at 2 µM was determined as 11.4 h and the “Mouse microsome % 60 min” value was determined as 95%.
As for `CCCn1ncc2ccc(-c3cc(COC(C)(C)C(=O)O)nn3-c3ccccc3N3CCC3)cc21` [Example 246, 2-([1-[2-(Azetidin-1-yl)phenyl]-5-(1-propyl-1H-indazol-6-yl)-1H-pyrazol-3-yl]methoxy)-2-methylpropanoic acid], in series [1], the half-life at 2 µM was 1.58 h and the “Human microsome % 60 min” value is 65%. For the same compound, in series [2], the half-life at 2 µM stood at 1.82 h and the “Rat microsome % 60 min” value is listed as 69%. Besides, the “Rat F” value in series [6] (oral bioavailability, PO 10 mg/kg) amounted to 52%. Moreover, the half-life in series [6] (plasma, PO 10 mg/kg, read-out: Rat t1/2 (converted)) was 4.7 h. The Vd in series [6] (plasma, volume of distribution, read-out: Rat Vss) was 1.7 L/kg. For the same compound, 3.1 nM corresponded to half-maximal inhibition in series [3] (IC50). In series [4], this compound gave an IC50 of 32000 nM. Besides, in series [5], the half-life at 2 µM was found to be 2.8 h and the “Mouse microsome % 60 min” value worked out at 81%.

As usually defined, the IC50 is the concentration that gives 50% inhibition.

Values taken from patent US10214492B2, “Heterocyclic inhibitors of MCT4” (Vettore, LLC, priority 2016, dated 2019).
